Converted amounts (≈) assume the structure as drawn.
How the values were obtained:
[1] = system: Enterobacter cloacae NCTC 13406; assay: MIC, broth microdilution (CLSI) versus planktonic bacteria; type: cell-based; details: NCTC13406; Enterobacter cloacae NCTC 13406; 16-20 h; mode of three independent experiments; read-out: MIC, Ecl NCTC 13406
[2] = system: E. coli NCTC 13476; assay: as above; type: cell-based; details: NCTC13476; Escherichia coli NCTC 13476; 16-20 h; mode of three independent experiments; read-out: MIC, Ec NCTC 13476
[3] = system: Pseudomonas aeruginosa ATCC 27853; assay: as above; type: cell-based; details: ATCC27853; Pseudomonas aeruginosa ATCC 27853; 16-20 h; mode of three independent experiments; read-out: MIC, Pa ATCC 27853
[4] = system: E. coli ATCC BAA-2452; assay: as above; type: cell-based; details: Escherichia coli ATCC BAA-2452; 16-20 h; mode of three independent experiments; read-out: MIC, Ec ATCC BAA 2452
[5] = system: Escherichia coli ATCC 25922; assay: as above; type: cell-based; details: ATCC25922; Escherichia coli ATCC 25922; 16-20 h; mode of three independent experiments; read-out: MIC, Ec ATCC 25922
[6] = system: Streptococcus pneumoniae ATCC 49619; assay: as above; type: cell-based; details: ATCC49619; Streptococcus pneumoniae ATCC 49619; 16-20 h; mode of three independent experiments; read-out: MIC, Sp ATCC 49619
[7] = system: E. coli MG1655 D87G; type: cell-based, Escherichia coli; details: compared to the isogenic parent strain E. coli MG1655; D87G mutation on DNA gyrase subunit GyrA
[8] = system: Haemophilus influenzae ATCC 49247; assay: MIC, broth microdilution (CLSI) versus planktonic bacteria; type: cell-based; details: ATCC49247; Haemophilus influenzae ATCC 49247; 16-20 h; mode of three independent experiments; read-out: MIC, Hi ATCC 49247
[9] = system: E. coli MG1655 S83L; type: cell-based, Escherichia coli; details: compared to the isogenic parent strain E. coli MG1655; S83L mutation on DNA gyrase subunit GyrA
[10] = system: Staphylococcus aureus ATCC 29213; assay: MIC, broth microdilution (CLSI) versus planktonic bacteria; type: cell-based; details: ATCC29213; Staphylococcus aureus ATCC 29213; 16-20 h; mode of three independent experiments; read-out: MIC, Sa ATCC 29213
[11] = system: Acinetobacter baumannii NCTC 13420; assay: as above; type: cell-based; details: NCTC13420; Acinetobacter baumannii NCTC 13420; 16-20 h; mode of three independent experiments; read-out: MIC, Ab NCTC 13420
[12] = system: E. coli MG1655; assay: as above; type: cell-based, Escherichia coli; details: Escherichia coli, MG1655, read-out: MIC, Ec MG1655 WT
[13] = system: human hepatic cell line (HepG2 ATCC HB-8065); assay: Human cell viability assay (CellTiter-Glo); details: Homo sapiens, HepG2, 24 h, read-out: IC50 (μg/mL) HepG2
[14] = system: Acinetobacter baumannii ATCC 19606; assay: MIC, broth microdilution (CLSI) versus planktonic bacteria; type: cell-based; details: ATCC19606; Acinetobacter baumannii ATCC 19606; 16-20 h; mode of three independent experiments; read-out: MIC, Ab ATCC 19606

| Compound | MIC [1] [µg/mL] | MIC [2] [µg/mL] | MIC [3] [µg/mL] | MIC [4] [µg/mL] | MIC [5] [µg/mL] | MIC [6] [µg/mL] | Fold increase in MIC, E. coli MG1655 D87G [7] [fold] | MIC [8] [µg/mL] | Fold increase in MIC, E. coli MG1655 S83L [9] [fold] | MIC [10] [µg/mL] | MIC [11] [µg/mL] | MIC [12] [µg/mL] | IC50 [13] [µg/mL] | MIC [14] [µg/mL] |
| --- | --- | --- | --- | --- | --- | --- | --- | --- | --- | --- | --- | --- | --- | --- |
| N#Cc1cnc2ccc(=O)n(CCN[C@H]3CC[C@H]4[C@@H](C3)OC(=O)N4c3ccc4c(n3)NC(=O)CO4)c2c1 [Compound 46, 5-(2-{[(3aS,6S,7aR)-2-oxo-3-{3-oxo-2H,3H,4H-pyrido[3,2-b][1,4]oxazin-6-yl}-octahydro-1,3-benzoxazol-6-yl]amino}ethyl)-6-oxo-5,6-dihydro-1,5-naphthyridine-3-carbonitrile] | < 1 | 1 to 10 (≈ 1.99 to 19.9 µM) | 1 to 10 (≈ 1.99 to 19.9 µM) | 1 to 10 (≈ 1.99 to 19.9 µM) | < 1 | < 1 | 1 | < 1 | 2 | < 1 | 1 to 10 (≈ 1.99 to 19.9 µM) | < 1 | > 100 | 1 to 10 (≈ 1.99 to 19.9 µM) |
| O=C1COc2ccc(N3C(=O)O[C@@H]4C[C@H](NCCCn5c(=O)cnc6cc(F)c(F)cc65)CC[C@H]43)nc2N1 [Compound 88, 1-(3-{[(3aR,6R,7aR)-2-oxo-3-{3-oxo-2H,3H,4H-pyrido[3,2-b][1,4]oxazin-6-yl}-octahydro-1,3-benzoxazol-6-yl]amino}propyl)-6,7-difluoro-1,2-dihydroquinoxalin-2-one] | < 1 | < 1 | 1 to 10 (≈ 1.9 to 19 µM) | < 1 | < 1 | < 1 | 1 | < 1 | 2 | < 1 | < 1 | < 1 | 10 to 100 (≈ 19 to 190 µM) | < 1 |
| COc1ccc2ccc(=O)n(CCN(CCO)[C@H]3CC[C@H]4[C@@H](C3)OC(=O)N4c3ccc4c(n3)NC(=O)CO4)c2n1 [Compound 7, 1-(2-{[(3aS,6S,7aR)-2-oxo-3-{3-oxo-2H,3H,4H-pyrido[3,2-b][1,4]oxazin-6-yl}-octahydro-1,3-benzoxazol-6-yl](2-hydroxyethyl)amino}ethyl)-7-methoxy-1,2-dihydro-1,8-naphthyridin-2-one] | 1 to 10 (≈ 1.82 to 18.2 µM) | 1 to 10 (≈ 1.82 to 18.2 µM) | 1 to 10 (≈ 1.82 to 18.2 µM) | 1 to 10 (≈ 1.82 to 18.2 µM) | < 1 | < 1 | 1 | 1 to 10 (≈ 1.82 to 18.2 µM) | 1 | < 1 | < 1 | < 1 | > 100 | 1 to 10 (≈ 1.82 to 18.2 µM) |
| O=C1COc2ccc(N3C(=O)O[C@H]4C[C@@H](NCCCn5c(=O)cnc6ccc(F)cc65)CC[C@@H]43)nc2N1 [Compound 92, 1-(3-{[(3aS,6S,7aS)-2-oxo-3-{3-oxo-2H,3H,4H-pyrido[3,2-b][1,4]oxazin-6-yl}-octahydro-1,3-benzoxazol-6-yl]amino}propyl)-7-fluoro-1,2-dihydroquinoxalin-2-one] | < 1 | < 1 | < 1 | < 1 | < 1 | < 1 | 1 | < 1 | 1 | < 1 | < 1 | < 1 | > 100 | < 1 |
| N#Cc1ccc2ccc(=O)n(CCN[C@H]3CC[C@H]4[C@@H](C3)OC(=O)N4c3ccc4c(n3)NC(=O)CO4)c2c1 [Compound 14, 1-(2-{[(3aS,6S,7aR)-2-oxo-3-{3-oxo-2H,3H,4H-pyrido[3,2-b][1,4]oxazin-6-yl}-octahydro-1,3-benzoxazol-6-yl]amino}ethyl)-2-oxo-1,2-dihydroquinoline-7-carbonitrile] | < 1 | < 1 | < 1 | < 1 | < 1 | < 1 | 2 | < 1 | 2 | < 1 | < 1 | < 1 | > 100 | < 1 |
